Laboratory results from ChEMBL document CHEMBL5126669, “Discovery of 5,7-Dihydro-6H-pyrrolo[2,3-d]pyrimidin-6-ones as Highly Selective CDK2 Inhibitors” (ACS Med Chem Lett, 2022).

Key:
[1] = biological target: Cyclin-dependent kinase 2/cyclin E1 (Homo sapiens, UniProt P24941); assay: Inhibition of recombinant human N-terminal GST-tagged full-length CDK2/Flag-tagged cyclinE1 expressed in baculovirus expression system using eIF4E-binding protein-1 peptide as substrate incubated for 1 hr in presence of ATP by HTRF assay
Homo sapiens [2] = species on record: Homo sapiens; assay: Selectivity ratio of IC50 for inhibition of CDK1/cyclin B (unknown origin) to IC50 for inhibition recombinant human N-terminal GST-tagged full-length CDK2/Flag-tagged cyclinE1 expressed in baculovirus expression system
Homo sapiens [3] = species on record: Homo sapiens; assay: Selectivity ratio of IC50 for inhibition of CDK4/cyclin D1 (unknown origin) to IC50 for inhibition recombinant human N-terminal GST-tagged full-length CDK2/Flag-tagged cyclinE1 expressed in baculovirus expression system
Homo sapiens [4] = species on record: Homo sapiens; assay: Selectivity ratio of IC50 for inhibition of CDK6/cyclin D1 (unknown origin) to IC50 for inhibition recombinant human N-terminal GST-tagged full-length CDK2/Flag-tagged cyclinE1 expressed in baculovirus expression system
[5] = biological target: Cyclin-dependent kinase 2 (Homo sapiens, UniProt P24941); assay: Inhibition of CDK2 in human COV318 cells incubated for overnight in presence of human whole blood by HTRF assay; format: cell-based
[6] = Intrinsic clearance in human liver microsomes at 1 uM measured upto 30 mins by LC/MS analysis; format: ADME, Microsome; conditions: read-out: CLH (converted)
[7] = Metabolic stability in Sprague-Dawley rat liver microsomes assessed as compound oxidation at 5 uM measured upto 30 mins by HPLC/MS analysis; format: ADME, Microsome; conditions: 0.5 h
[8] = Metabolic stability in Sprague-Dawley rat liver microsomes assessed as compound demethylation at 5 uM measured upto 30 mins by HPLC/MS analysis; format: ADME, Microsome; conditions: 0.5 h
[9] = Metabolic stability in Sprague-Dawley rat liver microsomes assessed as remaining parent compound at 5 uM measured upto 30 mins by HPLC/MS analysis; format: ADME, Microsome; conditions: 0.5 h
[10] = Metabolic stability in Cynomolgus monkey liver microsomes assessed as compound oxidation at 5 uM measured upto 30 mins by HPLC/MS analysis; format: ADME, Macaca fascicularis, Microsome; conditions: 0.5 h
[11] = Metabolic stability in Cynomolgus monkey liver microsomes assessed as compound demethylation at 5 uM measured upto 30 mins by HPLC/MS analysis; format: ADME, Macaca fascicularis, Microsome; conditions: 0.5 h
[12] = Metabolic stability in Cynomolgus monkey liver microsomes assessed as remaining parent compound at 5 uM measured upto 30 mins by HPLC/MS analysis; format: ADME, Macaca fascicularis, Microsome; conditions: 0.5 h
[13] = Metabolic stability in human liver microsomes assessed as compound oxidation at 5 uM measured upto 30 mins by HPLC/MS analysis; format: ADME, Microsome; conditions: microsomes, 0.5 h, 5 µM
[14] = Metabolic stability in human liver microsomes assessed as compound demethylation at 5 uM measured upto 30 mins by HPLC/MS analysis; format: ADME, Microsome; conditions: 0.5 h
[15] = Metabolic stability in human liver microsomes assessed as remaining parent compound at 5 uM measured upto 30 mins by HPLC/MS analysis; format: ADME, Microsome; conditions: microsomes, 0.5 h, 5 µM
Homo sapiens [16] = species on record: Homo sapiens; assay: Selectivity ratio of IC50 for inhibition of CDK4 (unknown origin) to IC50 for inhibition recombinant human N-terminal GST-tagged full-length CDK2/Flag-tagged cyclinE1 expressed in baculovirus expression system; conditions: tested as the 2H-labelled form
Homo sapiens [17] = species on record: Homo sapiens; assay: Selectivity ratio of IC50 for inhibition of CDK1 (unknown origin) to IC50 for inhibition recombinant human N-terminal GST-tagged full-length CDK2/Flag-tagged cyclinE1 expressed in baculovirus expression system; conditions: tested as the 2H-labelled form
Homo sapiens [18] = species on record: Homo sapiens; assay: Selectivity ratio of IC50 for inhibition of CDK9 (unknown origin) to IC50 for inhibition recombinant human N-terminal GST-tagged full-length CDK2/Flag-tagged cyclinE1 expressed in baculovirus expression system; conditions: tested as the 2H-labelled form
Homo sapiens [19] = species on record: Homo sapiens; assay: Selectivity ratio of IC50 for inhibition of CDK6 (unknown origin) to IC50 for inhibition recombinant human N-terminal GST-tagged full-length CDK2/Flag-tagged cyclinE1 expressed in baculovirus expression system; conditions: tested as the 2H-labelled form

- IC50 [1]: 1.2 nM
- Ratio IC50 (Homo sapiens [2]): 520
- Ratio IC50 (Homo sapiens [3]): 230
- Ratio IC50 (Homo sapiens [4]): 88
- IC50 [5]: 350 nM
- predicted hepatic clearance at 1 µM [6]: 13.3 mL/min/kg
- Drug metabolism [7]: 74%
- Drug metabolism [8]: 35%
- Stability [9]: 0.1%
- Drug metabolism [10]: 8%
- Drug metabolism [11]: 98%
- Stability [12]: 0.1%
- Drug metabolism [13]: 6%
- Drug metabolism [14]: 26%
- Stability [15]: 68%
- Ratio IC50 (Homo sapiens [16]): 240
- Ratio IC50 (Homo sapiens [17]): 490
- Ratio IC50 (Homo sapiens [18]): 2800
- Ratio IC50 (Homo sapiens [19]): 95
SMILES: CNS(=O)(=O)c1ccc(Nc2ncc3c(n2)N([C@@H]2CCC[C@@]2(C)O)C(=O)C32CC2)cc1 (relative stereo)
